Literature values in patent EP3027215B1, “POWDER FORMULATION OF VALGANCICLOVIR” (Ali Raif Ilaç Sanayi ve Ticaret Anonim Sirketi, priority 2013, dated 2015).

Assays:
[1] = at pH 7.0
[2] = solid form, stored under room temperature conditions

n-octanol-water partition coefficient [1]: 0.0095 | physical, chemical, and light stability [2]: acceptable
Structure (SMILES): CC(C)[C@H](N)C(=O)OCC(CO)OCn1cnc2c(=O)[nH]c(N)nc21.Cl (stereo partly drawn) [Valganciclovir hydrochloride, L-Valine, 2-[(2-amino-1,6-dihydro-6-oxo-9H-purin-9-yl)methoxy]-3-hydroxypropyl ester, monohydrochloride]
